Source: PubChem BioAssay AID1794823

Biological target: Sodium- and chloride-dependent creatine transporter 1 (Homo sapiens) (UniProt P48029)
Test: creatine transporter SLC6A8 activation, membrane depolarization – cell-based, membrane potential dye, HEK-293 JumpIN, SLC6A8 overexpression, dose response (AID 1794823)
Details: HEK-293 JumpIN SLC6A8, FLIPR membrane potential fluorescence

Chain of Sodium- and chloride-dependent creatine transporter 1 (Homo sapiens) (P48029 whole entry, looked up): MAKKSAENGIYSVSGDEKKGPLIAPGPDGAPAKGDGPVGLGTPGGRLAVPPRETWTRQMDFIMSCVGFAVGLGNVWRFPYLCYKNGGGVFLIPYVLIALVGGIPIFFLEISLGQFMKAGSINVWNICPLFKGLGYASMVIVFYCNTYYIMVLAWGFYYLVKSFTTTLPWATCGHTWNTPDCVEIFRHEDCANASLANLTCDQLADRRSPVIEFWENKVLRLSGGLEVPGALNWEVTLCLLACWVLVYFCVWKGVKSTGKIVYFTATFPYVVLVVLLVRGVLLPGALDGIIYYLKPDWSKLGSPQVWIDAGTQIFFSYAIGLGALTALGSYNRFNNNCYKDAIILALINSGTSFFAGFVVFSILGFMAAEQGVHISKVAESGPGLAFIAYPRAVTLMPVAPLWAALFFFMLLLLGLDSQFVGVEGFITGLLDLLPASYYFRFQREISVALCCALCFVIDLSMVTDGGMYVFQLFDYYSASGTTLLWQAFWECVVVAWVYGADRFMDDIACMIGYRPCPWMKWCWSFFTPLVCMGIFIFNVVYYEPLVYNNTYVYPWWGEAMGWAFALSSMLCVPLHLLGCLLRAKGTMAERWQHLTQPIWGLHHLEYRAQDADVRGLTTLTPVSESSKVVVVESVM

- EC50: 5 µM
Structure (SMILES): CN(CC(=O)O)C(=N)N
